Results published in publication PMC4655838, “Versatility in phospho-dependent molecular recognition of the XRCC1 and XRCC4 DNA-damage scaffolds by aprataxin-family FHA domains” (DNA Repair, 2015).
Read-outs that look alike come from different tables or passages of the source. Square brackets hold non-standard residues; d marks the D form. Peptide text beside a SMILES is read from it. pT = C[C@@H](OP(=O)(O)O)[C@H](N)C(=O)O; pS = N[C@@H](COP(=O)(O)O)C(=O)O

Assays:
Format in all cases: binding
aprataxin FHA domain = biological target: T1, aprataxin FHA domain (Homo sapiens, UniProt Q7Z2E3); experiment: NMR (1H-SOFAST-HMQC) titrations of aprataxin FHA domain with XRCC1 phosphopeptides; conditions: NMR titration, 22 °C
T1 construct: aprataxin residues 1–105; GST (pGEX-6P-1) (N, cleaved yes); made in house; host or cells: Escherichia coli BL21 (DE3)
T1 sequence (Q7Z2E3 15-119): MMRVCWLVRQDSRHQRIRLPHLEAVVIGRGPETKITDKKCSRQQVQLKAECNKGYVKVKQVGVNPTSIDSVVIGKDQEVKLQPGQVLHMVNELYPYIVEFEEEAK
Procedure: NMR experiments were carried out at 22 °C on Bruker Avance II+ 600 MHz and Avance III 700 MHz spectrometers, each equipped with a cryogenic triple-resonance probe. Protein and peptides were prepared in NMR buffer (20 mM Na Acetate pH 5.8, 50 mM NaCl, 2 mM DTT). Three-dimensional HNCA, HNCO, HNCACB and CBCA(CO)NH experiments were performed to obtain backbone assignments. NMR titration experiments were carried out by adding the unlabelled XRCC1 peptides to ^15N-labeled aprataxin FHA domain. The initial protein concentration was 92 μM and volumes of 2 mM stock solution of peptide were added until the protein:peptide ratio was 1:4. ^1H-SOFAST-HMQC [36] spectra were measured after each titration step. All spectra were processed using nmrPipe, and analysed using CARA/NEASY [38]. The weighted chemical shift change (in ppm units) of each amide proton (ΔδHN) and nitrogen (ΔδN) was calculated according to the equation: Δδtotal = [(ΔδHNWHN)^2 + (ΔδNWN)^2]^1/2 with WHN = 1 and WN = 0.154 [39]. Weighted chemical shifts for residues D37, V45, Q46, V61 and V63 were plotted against peptide concentration to determine individual Kds and averaged to determine the apparent Kd.

[1] = biological target: T2, R42A Mutant of aprataxin FHA domain (Homo sapiens, UniProt Q7Z2E3, R56A); experiment: ITC of R42A mutant of aprataxin FHA domain with XRCC1 and XRCC4 phosphopeptides; conditions: 22 °C, 50 mM HEPES pH 7.5, 150 mM NaCl, 5 mM β-mercaptoethanol, single-site model
T2 construct: aprataxin residues 1–105; GST (pGEX-6P-1) (N, cleaved yes); made in house; host or cells: Escherichia coli BL21 (DE3)
T2 sequence (Q7Z2E3 15-119 R56A): as the sequence (Q7Z2E3 15-119) above, with R42A counted along it
Description: (§1) The genes for aprataxin residues 1–105 and APLF residues 1–106 were amplified using primer sets which incorporated 5′ BamHI and 3′ XhoI sites. PCR products and pGEX-6P-1 vector were digested with BamHI and XhoI and religated. All point mutations were generated using a QuickChange Site-Directed Mutagenesis Kit (Stratagene) following the manufacturer's recommended protocol.
(§2) For expression, the pGEX-6P-1/aprataxin-FHA constructs were transformed into Escherichia coli strain BL21 (DE3) and the pGEX-6P-1/APLF-FHA constructs transformed into the strain Rosetta2 (DE3). Cells were grown in LB at 37 °C to an A600 of 0.5, induced with 0.4 mM isopropyl 1-thio-β-D-galactopyranoside and incubated at 18 °C for a further 16 h before harvesting. Cells were lysed by sonication and clarified by centrifugation (20,000 × g × 30 min). The supernatant was applied to a glutathione-4B resin (Amersham) and cleaved from the resin with rhinovirus 3C protease. Proteins were purified further by gel-filtration chromatography on a Superdex 75 matrix in 20 mM Tris pH 7.5, 150 mM NaCl, 5 mM DTT. Selenomethionine-labelled APLF L91 M protein was expressed in Rosetta2 (DE3) cells cultured in SelenoMet base media and nutrients supplemented with seleno-methionine solution (Molecular Dimensions Ltd.) and purified as the wild-type protein.
(§3) Phosphopeptides based on the XRCC1 sequence 515-YAGSTDENTDSEEHQ-529 and the XRCC4 sequence 229-YDESTDEES-237 were synthesised with amidated C-termini to avoid potential end-effects of a free carboxy-terminus by Dr. W. Mawby (University of Bristol), purified by HPLC and characterised by mass spectrometry. FHA-phosphopeptide binding was quantified by isothermal titration calorimetry using a Microcal Omega VP-ITC calorimeter (MicroCal Inc., Northampton, MA). Protein was dialysed against ITC buffer (50 mM HEPES pH 7.5, 150 mM NaCl, 5 mM β-mercaptoethanol) and peptides were dissolved in the dialysis buffer. Experiments were carried out at 22 °C and involved 30 successive 10 μl injections of peptide solution into a sample cell containing protein solution. Titrations with XRCC1 peptides used peptide at 1 mM and protein at 100 μM and titrations with XRCC4 peptides used peptide at 300 μm and protein at 30 μM. Heats of dilution were subtracted and binding isotherms were plotted and analysed with MicroCal origin version 7.0, assuming a single-site binding model.

[2] = biological target: T3, wild-type APLF FHA domain (Homo sapiens, UniProt Q8IW19); experiment: ITC of wild-type APLF FHA domain with XRCC1 and XRCC4 phosphopeptides; conditions: 22 °C, 50 mM HEPES pH 7.5, 150 mM NaCl, 5 mM β-mercaptoethanol, peptide in syringe, XRCC1 peptides 1 mM into 100 μM protein, XRCC4 peptides 300 μM into 30 μM protein, single-site model, representative of triplicate
T3 construct: APLF residues 1–106; GST (pGEX-6P-1) (N, cleaved yes); made in house; host or cells: Escherichia coli Rosetta2 (DE3)
T3 sequence (Q8IW19 1-106): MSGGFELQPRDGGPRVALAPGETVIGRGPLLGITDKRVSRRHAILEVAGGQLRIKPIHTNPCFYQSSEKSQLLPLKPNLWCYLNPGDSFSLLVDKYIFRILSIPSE
Description: as §1
For expression, the pGEX-6P-1/aprataxin-FHA constructs were transformed into Escherichia coli strain BL21 (DE3) and the pGEX-6P-1/APLF-FHA constructs transformed into the strain Rosetta2 (DE3). Cells were grown in LB at 37 °C to an A600 of 0.5, induced with 0.4 mM isopropyl 1-thio-β-D-galactopyranoside and incubated at 18 °C for a further 16 h before harvesting. […]
Phosphopeptides based on the XRCC1 sequence 515-YAGSTDENTDSEEHQ-529 and the XRCC4 sequence 229-YDESTDEES-237 were synthesised with amidated C-termini to avoid potential end-effects of a free carboxy-terminus by Dr. W. Mawby (University of Bristol), purified by HPLC and characterised by mass spectrometry. FHA-phosphopeptide binding was quantified by isothermal titration calorimetry using a Microcal Omega VP-ITC calorimeter (MicroCal Inc., Northampton, MA). […] Heats of dilution were subtracted and binding isotherms were plotted and analysed with MicroCal origin version 7.0, assuming a single-site binding model.

[3] = biological target: T4, K38A Mutant of aprataxin FHA domain (Homo sapiens, UniProt Q7Z2E3, K52A); experiment: ITC of K38A mutant of aprataxin FHA domain with XRCC1 and XRCC4 phosphopeptides; conditions: 22 °C, 50 mM HEPES pH 7.5, 150 mM NaCl, 5 mM β-mercaptoethanol, single-site model
T4 construct: aprataxin residues 1–105; GST (pGEX-6P-1) (N, cleaved yes); made in house; host or cells: Escherichia coli BL21 (DE3)
T4 sequence (Q7Z2E3 15-119 K52A): as the sequence (Q7Z2E3 15-119) above, with K38A counted along it
Description: as §1, §2, §3

[4] = biological target: T5, wild-type aprataxin FHA domain (Homo sapiens, UniProt Q7Z2E3); experiment: ITC of wild-type aprataxin FHA domain with XRCC1 and XRCC4 phosphopeptides; conditions: 22 °C, 50 mM HEPES pH 7.5, 150 mM NaCl, 5 mM β-mercaptoethanol, peptide in syringe, XRCC1 peptides 1 mM into 100 μM protein, XRCC4 peptides 300 μM into 30 μM protein, single-site model, representative of triplicate
T5 construct: aprataxin residues 1–105; GST (pGEX-6P-1) (N, cleaved yes); made in house; host or cells: Escherichia coli BL21 (DE3)
T5 sequence (Q7Z2E3 15-119): as the sequence (Q7Z2E3 15-119) above
Description: as §1, §2, §3

Q: What does the source list for `C[C@H](NC(=O)[C@@H](N)Cc1ccc(O)cc1)C(=O)NCC(=O)N[C@@H](COP(=O)(O)O)C(=O)N[C@H](C(=O)N[C@@H](CC(=O)O)C(=O)N[C@@H](CCC(=O)O)C(=O)N[C@@H](CC(N)=O)C(=O)N[C@H](C(=O)N[C@@H](CC(=O)O)C(=O)N[C@@H](CO)C(=O)N[C@@H](CCC(=O)O)C(=O)N[C@@H](CCC(=O)O)C(=O)N[C@@H](Cc1c[nH]cn1)C(=O)N[C@@H](CCC(N)=O)C(N)=O)[C@@H](C)OP(=O)(O)O)[C@@H](C)OP(=O)(O)O` [YAGpSpTDENpTDSEEHQ] (H-YAG[pS][pT]DEN[pT]DSEEHQ-NH2)?
A: Kd (aprataxin FHA domain; 20 mM Na Acetate pH 5.8, 50 mM NaCl, 2 mM DTT, 92 µM 15N aprataxin FHA, 2 mM peptide stock, read-out: Kd from weighted chemical shift of residue Asp37): 100 nM; Kd (aprataxin FHA domain; pH 5.8, 92 µM aprataxin FHA, read-out: Kd from weighted chemical shift of residue Gln46): 100 nM; Kd (aprataxin FHA domain; pH 5.8, 92 µM aprataxin FHA, read-out: Kd from weighted chemical shift of residue Val45): 600 nM; Kd (aprataxin FHA domain; pH 5.8, 92 µM aprataxin FHA, read-out: Kd from weighted chemical shift of residue Val61): 100 nM; Kd (aprataxin FHA domain; pH 5.8, 92 µM aprataxin FHA, read-out: Kd from weighted chemical shift of residue Val63): 500 nM; Kd (aprataxin FHA domain; pH 5.8, mean of individual Kds of D37, V45, Q46, V61, V63, read-out: Kd, Mean (SEM) over five residues (apparent Kd)): 300 nM; Kd (aprataxin FHA domain; pH 5.8, tighter binders not well defined due to high protein concentration, read-out: overall apparent affinity (Kdapp) estimated from NMR titrations): < 1000 nM; Kd [1]: 28700 ± 1900 nM; Kd [2]: 11000 ± 500 nM; Kd [3]: 4400 ± 300 nM; Kd [4]: 500 ± 50 nM
